# Measured values reported in publication PMC12390126, “Human Skin Permeation of Ethoxy- and Propoxypropanol Commonly Found in Water-Based Products” (Toxics, 2025).
# Columns and labels:
# [1] = In vitro static diffusion cell skin permeation (influence of water); format: in vitro ADME, human; details: static cells; 0, 25, 50 or 75% of water
# Text: Human abdominal full thickness skin was obtained as surgical waste from the Lausanne University Hospital (CHUV) and the Department of Musculoskeletal Medicine (DAL) Biobank, Switzerland, according to the Swiss ethics in the canton Vaud (CER-VD: Commission cantonal d’éthique de la recherche sur l’être humain, ethical protocol 264/12). The surgeon obtained written consent from the patients before the start of the operation. The collected skin was anonymized, and only sex and age were provided for this study. Human skin was obtained directly after the surgery and immediately dermatomed to a thickness of 800 µm (Acculan®II, B. Braun/Aesculap, Sempach, Switzerland) to account for any potential storage effects on its in vitro mass balance. The experiments were run with triplicate skin samples (n = 3) from three different donors giving a total of nine samples for each experiment. The skin samples used for this study were stored at −20 °C for up to four years. […]
# The concentrations of parent compounds were quantified by gas-chromatography tandem mass spectrometry (GC-MS/MS). […] The limits of detections (LODs) for PGEE and PGPE were 0.045 µg/mL and 0.035 µg/mL, respectively, and the limits of quantifications (LOQs) for PGEE and for PGPE were 0.135 µg/mL and 0.105 µg/mL, respectively. […]
# [2] = Mass balance of flow-through diffusion cell experiments; format: in vitro ADME, human; details: for Receptor Chamber (percentage of applied dose): remaining fluid at end
# Description: A mass balance was performed only for flow-through diffusion cell experiments following the OECD guidelines, where the mean recovery should be 100 ± 10% [20]. The following components of the test system were analyzed to determine recovery: donor chamber, skin, and receptor chamber. The donor chamber was rinsed three times with 500 µL of water (donor chamber samples), the skin disk was sonicated three times for five minutes in water (skin samples), and the remaining fluid receptor chamber was collected (receptor chamber samples). If liquid was present in the donor chamber at the end of the experiment, it was also collected and analyzed with the donor chamber samples. PGE concentrations were quantified in all mass balance samples by GC-MS/MS, i.e., donor chamber rinsing water, water collected after sonication of skin, and remaining fluid receptor chamber. Mean concentrations of PGEE and PGPE were calculated for all cells in both conditions (neat or aqueous), and the results were reported as the percentage of the applied dose.
Compound,mean cumulative amount in receptor fluid after 24 h: trend with percentage of water [1],Donor Chamber (percentage of applied dose) ([2]; 50:50 (aq)),Receptor Chamber over 24 h (sum of receptor fluid collected at different time points) ([2]; 50:50 (aq)),Recovery (percentage of applied dose) ([2]; 50:50 (aq)),Receptor Chamber (percentage of applied dose) ([2]; 50:50 (aq)),Donor Chamber (percentage of applied dose) ([2]; neat),Receptor Chamber over 24 h (sum of receptor fluid collected at different time points) ([2]; neat),Recovery (percentage of applied dose) ([2]; neat),Receptor Chamber (percentage of applied dose) ([2]; neat)
CCOCC(C)O (stereo not drawn) [PGEE],increased with the percentage of water in the applied mixture,0.02%,44.0%,45.1%,1.1%,0.0003%,16.8%,17.3%,0.5%
"CCCOCC(C)O (stereo not drawn) [PGPE, propoxypropanol]","reached a maximum when diluted with 25 % water (75:25), followed by a decrease at higher water concentrations",0.05%,24.1%,24.6%,0.4%,0.18%,9.4%,9.9%,0.3%
